Where two headings read alike, the source gives them in different places. Values belong to the compound of their own block, whether it stands above or below them.
Columns and labels:
[1] = Absorptive and emissive wavelength maxima and fluorescence of the compounds of Examples C to I; type: physicochemical; conditions: for Maximum absorptive wavelength / Maximum emissive wavelength: measured in methanol; for Fluorescence (in words): qualitative, methanol where stated
[2] = Dimer formation of dye by UV spectrum on thin glass slide; type: physicochemical
[3] = Literature spectral properties of prior art fluorescent dyes; type: physicochemical
[4] = cited from earlier work; for RI (relative intensity): 1.00 = intensity of the dye in methanol
[5] = cited from earlier work
[6] = Qualitative solubility of the compounds of Examples A and B (Table 3); type: physicochemical; conditions: applies to either dye compound
Source text: (§1) The observed absorption maxima, molar extinction coefficients, emission maxima and qualitative solubility data for the boron-rigidized complexes of Examples A and B are provided in Table 3.

[7] = Resistance to photodegradation (500 watt mercury vapor lamp; optical density monitored); type: physicochemical; conditions: for Red shift at the maximum wavelength / Resistance to photofading compared with the Coumarin dyes: dichloromethane; for Photofading rate compared with the corresponding Coumarin compound: methanol, 500 watt mercury vapor lamp
Source text: The resistance to photodegradation of the compounds of Examples A and B in methanol and dichloromethane was also investigated and was compared with photofading rates of certain Coumarin dyes. A degassed solution of each dye in a quartz cuvette was illuminated with a 500 watt mercury vapor lamp from a distance of 4 inches. The solution optical density at maximum wavelength was monitored as a function of time.

[8] = Absorption/emission spectra and molar extinction coefficients of the compounds of Examples A and B in solvents (Table 3); type: physicochemical; conditions: for Shape of emission spectrum relative to absorption spectrum: FIG. 3 and FIG. 4; for Stokes shift: solvents of Table 3
Source text: as §1

[9] = Relative fluorescence intensities of the compounds of Examples A and B in a variety of solvents (Table 4); type: physicochemical
Source text: See M. T. Ramos et al., Heterocycles, Vol. 29, p. 165 (1989).

[10] = Relative fluorescence of boron-rigidized vs unrigidized dye in methanol (FIG. 2); type: physicochemical; conditions: excited at 348 nm, vs bis-benzoxazolylmethene hydrochloride
Source text: The present inventors have determined that the rigidization of the basic monomethine cyanine structure increase the quantum efficiency of the dye molecules as much as 5 to 20 times. Thus, the boron-rigidized dyes of the present invention are unusually fluorescent compared with nonrigidized cyanine dye molecules. The present invention thus provides a method for increasing the fluorescence of dyes by rigidizing monomethine cyanine compounds with a boron bridge. Rigidization increase the planarity of the compound, and the fluorescence intensity.

Compound: O=C(O)CC1=C2Sc3cc(S(=O)(=O)O)ccc3N2[B-](F)(F)[n+]2c1sc1cc(S(=O)(=O)O)ccc12
- Dimer by UV spectrum ([2]; HMPA): absence of dimer

Compound: 7-amino-4-methylcoumarin acetate
- Fluorescence capacity (extinction coefficient x quantum yield) relative to the present inventions' compounds [3]: approximately one-quarter

Compound: O=C(Cc1ccc2c(c1)N1C(=Cc3oc4ccc(CC(=O)ON5C(=O)CCC5=O)cc4[n+]3[B-]1(F)F)O2)ON1C(=O)CCC1=O [Blue 1-OSu, disuccinimidyl benzoxazolylmethene borondifluoride complex]
- Dimer by UV spectrum ([2]; DMF reaction mixture): presence of dimer

Compound: CC1=CC(C)=[N+]2C1=Cc1c(C)cc(C)n1[B-]2(F)F [Bodipy, 3,3',5,5'-tetramethyl-2,2'-pyrromethene-1,1'-boron-difluoride]
- RI (relative intensity) ([4]; Acetonitrile): 0.87
- Extinction coefficient ([4]; Acetonitrile): 86.7 cm⁻¹ mM⁻¹
- Max. absorption wavelength ([4]; Acetonitrile): 501 nm
- Max. emission wavelength ([4]; Acetonitrile): 508 nm
- RI (relative intensity) ([4]; Dioxane): 0.63
- Extinction coefficient ([4]; Dioxane): 80.0 cm⁻¹ mM⁻¹
- Max. absorption wavelength ([4]; Dioxane): 505 nm
- Max. emission wavelength ([4]; Dioxane): 512 nm
- RI (relative intensity) ([4]; Methanol): 1.00
- Extinction coefficient ([4]; Methanol): 85.3 cm⁻¹ mM⁻¹
- Max. absorption wavelength ([4]; Methanol): 501 nm
- Max. emission wavelength ([4]; Methanol): 509 nm
- RI (relative intensity) ([4]; Water): 0.48
- Max. absorption wavelength ([4]; Water): 500 nm
- Max. emission wavelength ([4]; Water): 508 nm
- Maximum absorptive wavelength ([5]; aqueous media): 500 nm
- Maximum emissive wavelength ([5]; aqueous media): 508 nm
- Emission maximum ([5]; solvent not stated): 508 nm

Compound: F[B-]1(F)N2C(=Cc3sc4ccccc4[n+]31)Sc1ccccc12 [Example A, Bis-benzothiazolylmethene Borondifluoride]
- Solubility data (qualitative) ([6]; Acetonitrile): sol.
- Solubility data (qualitative) ([6]; Chloroform): sol.
- Solubility data (qualitative) ([6]; Ethanol): sparingly
- Solubility data (qualitative) ([6]; Ethyl Acetate): sol.
- Solubility data (qualitative) ([6]; Methanol): sparingly
- Solubility data (qualitative) ([6]; Toluene): sol.
- Red shift at the maximum wavelength [7]: approximately 12 nm
- Resistance to photofading compared with the Coumarin dyes [7]: more resistant to photofading than the Coumarin dyes
- Photofading rate compared with the corresponding Coumarin compound [7]: faded somewhat faster
- Logarithm of the Extinction coefficient ([8]; Acetonitrile): 4.97 M^-1 cm^-1
- Max. absorption wavelength ([8]; Acetonitrile): 418 nm
- Max. emission wavelength ([8]; Acetonitrile): 423 nm
- Logarithm of the Extinction coefficient ([8]; Chloroform): 4.97 M^-1 cm^-1
- Max. absorption wavelength ([8]; Chloroform): 420 nm
- Max. emission wavelength ([8]; Chloroform): 425 nm
- Max. absorption wavelength ([8]; Ethanol): 418 nm
- Max. emission wavelength ([8]; Ethanol): 423 nm
- Logarithm of the Extinction coefficient ([8]; Ethyl Acetate): 4.98 M^-1 cm^-1
- Max. absorption wavelength ([8]; Ethyl Acetate): 418 nm
- Max. emission wavelength ([8]; Ethyl Acetate): 423 nm
- Shape of emission spectrum relative to absorption spectrum [8]: mirrors its absorption spectrum
- Max. absorption wavelength ([8]; Methanol): 418 nm
- Max. emission wavelength ([8]; Methanol): 422 nm
- Logarithm of the Extinction coefficient ([8]; Toluene): 4.95 M^-1 cm^-1
- Max. absorption wavelength ([8]; Toluene): 420 nm
- Max. emission wavelength ([8]; Toluene): 427 nm
- Stokes shift [8]: 5-7 nm
- Relative fluorescence intensity ([9]; Acetonitrile): 0.89
- Relative fluorescence intensity ([9]; Chloroform): 0.91
- Relative fluorescence intensity ([9]; Ethyl Acetate): 0.97
- Relative fluorescence intensity ([9]; Methanol): 0.89
- Relative fluorescence intensity ([9]; Toluene): 0.81

Compound: O=C(O)Cc1ccc2c(c1)N1C(=Cc3oc4ccc(CC(=O)O)cc4[n+]3[B-]1(F)F)O2 [Example C, Bis-carboxymethyl Benzoxazolylmethene Borondifluoride]
- Maximum absorptive wavelength [1]: 362 nm
- Maximum emissive wavelength [1]: 386 nm
- Fluorescence (in words) [1]: highly fluorescent

Compound: F[B-]1(F)N2C(=Cc3oc4ccccc4[n+]31)Oc1ccccc12 [Example B, Bis-benzoxazolylmethene Borondifluoride]
- Solubility data (qualitative) ([6]; Acetonitrile): sol.
- Solubility data (qualitative) ([6]; Chloroform): sol.
- Solubility data (qualitative) ([6]; Ethanol): sparingly
- Solubility data (qualitative) ([6]; Ethyl Acetate): sol.
- Solubility data (qualitative) ([6]; Methanol): sparingly
- Solubility data (qualitative) ([6]; Toluene): sol.
- Red shift at the maximum wavelength [7]: approximately 12 nm
- Resistance to photofading compared with the Coumarin dyes [7]: more resistant to photofading than the Coumarin dyes
- Photofading rate compared with the corresponding Coumarin compound [7]: faded at a similar rate
- Logarithm of the Extinction coefficient ([8]; Acetonitrile): 4.72 M^-1 cm^-1
- Max. absorption wavelength ([8]; Acetonitrile): 358 nm
- Max. emission wavelength ([8]; Acetonitrile): 385 nm
- Logarithm of the Extinction coefficient ([8]; Chloroform): 4.72 M^-1 cm^-1
- Max. absorption wavelength ([8]; Chloroform): 360 nm
- Max. emission wavelength ([8]; Chloroform): 386 nm
- Max. absorption wavelength ([8]; Ethanol): 358 nm
- Max. emission wavelength ([8]; Ethanol): 386 nm
- Logarithm of the Extinction coefficient ([8]; Ethyl Acetate): 4.74 M^-1 cm^-1
- Max. absorption wavelength ([8]; Ethyl Acetate): 358 nm
- Max. emission wavelength ([8]; Ethyl Acetate): 383 nm
- Shape of emission spectrum relative to absorption spectrum [8]: appears to be much broader
- Max. absorption wavelength ([8]; Methanol): 358 nm
- Max. emission wavelength ([8]; Methanol): 385 nm
- Logarithm of the Extinction coefficient ([8]; Toluene): 4.74 M^-1 cm^-1
- Max. absorption wavelength ([8]; Toluene): 360 nm
- Max. emission wavelength ([8]; Toluene): 392 nm
- Stokes shift [8]: 28 nm
- Relative fluorescence intensity ([9]; Acetonitrile): 1.39
- Relative fluorescence intensity ([9]; Chloroform): 1.27
- Relative fluorescence intensity ([9]; Ethanol): 1.33
- Relative fluorescence intensity ([9]; Ethyl Acetate): 1.20
- Relative fluorescence intensity ([9]; Methanol): 1.35
- Relative fluorescence intensity ([9]; Toluene): 1.42
- Quantum yield compared with the unrigidized dye [10]: several fold greater than the unrigidized dye

Compound: CC1=CC(C)=[N+]2C1=Cc1c(C)c(S(=O)(=O)O)c(C)n1[B-]2(F)F [Bodipy-sulfonate, 4-Sulfonato-3,3'5,5'-Tetramethyl-2,2'-Pyrromethene-1,1'-Borondifluoride Complex]
- RI (relative intensity) ([4]; Acetonitrile): 0.69
- Extinction coefficient ([4]; Acetonitrile): 58.9 cm⁻¹ mM⁻¹
- Max. absorption wavelength ([4]; Acetonitrile): 504 nm
- Max. emission wavelength ([4]; Acetonitrile): 514 nm
- RI (relative intensity) ([4]; Dioxane): 0.64
- Extinction coefficient ([4]; Dioxane): 52.7 cm⁻¹ mM⁻¹
- Max. absorption wavelength ([4]; Dioxane): 506 nm
- Max. emission wavelength ([4]; Dioxane): 518 nm
- RI (relative intensity) ([4]; Methanol): 1.00
- Extinction coefficient ([4]; Methanol): 57.7 cm⁻¹ mM⁻¹
- Max. absorption wavelength ([4]; Methanol): 500 nm
- Max. emission wavelength ([4]; Methanol): 515 nm
- RI (relative intensity) ([4]; Water): 0.67
- Extinction coefficient ([4]; Water): 39.7 cm⁻¹ mM⁻¹
- Max. absorption wavelength ([4]; Water): 494 nm
- Max. emission wavelength ([4]; Water): 509 nm

Further lines, with some results ahead:

- Maximum absorptive wavelength [1]: 480 nm
- Maximum emissive wavelength [1]: 492 nm
- Fluorescence (in words) [1]: green fluorescence
Compound: F[B-]1(F)N2C(=Cc3ccc4ccccc4[n+]31)Sc1ccccc12 [Example I, 2(2'-Benzothiazolylmethene)Quinoline Borondifluoride]

- Maximum absorptive wavelength [1]: 512 nm
- Maximum emissive wavelength [1]: 518 nm
- Fluorescence (in words) [1]: intense green fluorescence
Compound: F[B-]1(F)N2C(=Cc3ccc4ccccc4[n+]31)C=Cc1ccccc12 [Example H, Bis-Quinolinemethene Borondifluoride]

- Maximum absorptive wavelength [1]: 430 nm
- Maximum emissive wavelength [1]: 476 nm
- Fluorescence (in words) [1]: high fluorescence
Compound: F[B-]1(F)N2C=CC=CC2=Cc2sc3ccccc3[n+]21 [Example F, Benzothiazolyl Pyridylmonomethine Borondifluoride]

- Maximum absorptive wavelength [1]: 388 nm
- Maximum emissive wavelength [1]: 414 nm
- Fluorescence (in words) [1]: highly fluorescent
Compound: F[B-]1(F)N2C(=Cc3sc4ccccc4[n+]31)Oc1ccccc12 [Example D]

- Maximum absorptive wavelength [1]: 432 nm
- Maximum emissive wavelength [1]: 460 nm
- Fluorescence (in words) [1]: very fluorescent
Compound: N#CC1=C2C=CC=CN2[B-](F)(F)[n+]2ccccc21 [Example G]

- Maximum absorptive wavelength [1]: 416 nm
Compound: CC(=O)C1=C2Sc3ccccc3N2[B-](F)(F)[n+]2c1sc1ccccc12 [Example E]
- Fluorescence (in words) [1]: less fluorescent than the base benzothiazole chromophore

Source: US5852191A, “Rigidized monomethine cyanines” (Carnegie Mellon University, priority 1995, dated 1998)
